# Results published in patent publication US20050100507A1, “Chemotactic peptide antagonists for imaging sites of inflammation” (Bracco Imaging S.p.A., priority 1998, published 2005).
# Square brackets hold non-standard residues; d marks the D form. Ends that are not written are not given here. * marks the point of attachment. Acetyl(9-fluorenyl) = O=C(CC1c2ccccc2-c2ccccc21)*; N,N‑diphenylcarbamoyl = O=C(N(c1ccccc1)c1ccccc1)*; N,N‑diethylcarbamoyl = CCN(CC)C(=O)*; Cyclopropanecarbonyl = O=C(C1CC1)*; Nle = CCCC[C@H](N)C(=O)O
# Columns and labels:
# human neutrophils = experiment: Myeloperoxidase release from human neutrophils; assay type: cell-based; conditions: result in words; for inhibition of MPO release in fMLF-stimulated human neutrophils (FIG. 4): 10 uM compound, fMLF 10^−8 M and 10^−6 M, p<0.05; for stimulation of MPO release by the compound itself in human neutrophils: up to 10 uM compound, low fMLF (10^−14M, 10^−12M)
# Procedure: Approximately 30 mL of venous blood was collected from healthy volunteers with 100 units of heparin per mL of blood. Samples were then mixed with 8 mL of 6% dextran solution and incubated at 37° C. for 1 hour for RBC sedimentation. Leukocyte-rich plasma was collected and centrifuged at 1500 rpm for 5 minutes. Cell pellets were resuspended in 35 mL of saline and 10 mL of lymphocyte separation medium was layered over prior to additional centrifugation at 1200 rpm for 30 minutes. Sedimented cells were washed once with 35 mL of saline and RBCs were lysed by resuspension in 1.8 mL of sterile H2O for 15 seconds. Isotonicity was restored with the addition of 0.2 mL of 10×HBSS− followed by the addition of 35 mL of saline. Centrifugation at 1500 rpm for 5 minutes was then performed. Following final washing of the PMN pellet with 35 mL of saline, cell viability was determined via trypan blue exclusion and cell number was determined.
# (§1) 0.5×10^6 PMNs per sample were incubated in 96-well Millipore Multiscreen 0.65 um filter plates. In a final volume of 150 uL, 50 uL of the respective fMLP analogues (10 uM to 1 pM) and/or fMLP (10 uM to 1.0 uM) were incubated with isolated PMNs pre-treated with cytochalasin B (5 ug/mL) for 10 minutes. Following a 30 minute incubation period at room temperature, the supernatant was collected into a 96-well polypropylene plate with the Millipore vacuum apparatus. A stock solution of o-phenylenediamine (OPD) was made to contain 2.5 mg of OPD, 5 ul of H2O2 and 10 mL HBSS+ and supernatant samples were subsequently incubated with 50 uL of OPD solution. The reaction was stopped after 2 minutes by the addition of 2.5M H2SO4. Photometric analysis was performed with the Thermomax Microplate Reader with optical density (O.D.490) values being read at a wavelength of 490 nm. Absorbance was measured against a blank containing 150 μl of HBSS+ which was subtracted from wells containing cells and the various treatments. MPO release was expressed as a percentage of the total release of myeloperoxidase in control wells containing cells ±fMLF.
# Rat FPR = target: T1, Rat FPR (Rattus norvegicus, UniProt D4A7Q2); experiment: Competition binding with 6 nM 3H-fMLF to elicited rat PMNs; conditions: for competition binding of N-terminal modified NleLFK peptides (FIG. 8): peptides at 1 uM and 10 uM
# T1 construct: endogenous in cells; host or cells: glycogen-elicited peritoneal neutrophils (PMNs) of Sprague-Dawley rats
# T1 sequence (D4A7Q2 1-355): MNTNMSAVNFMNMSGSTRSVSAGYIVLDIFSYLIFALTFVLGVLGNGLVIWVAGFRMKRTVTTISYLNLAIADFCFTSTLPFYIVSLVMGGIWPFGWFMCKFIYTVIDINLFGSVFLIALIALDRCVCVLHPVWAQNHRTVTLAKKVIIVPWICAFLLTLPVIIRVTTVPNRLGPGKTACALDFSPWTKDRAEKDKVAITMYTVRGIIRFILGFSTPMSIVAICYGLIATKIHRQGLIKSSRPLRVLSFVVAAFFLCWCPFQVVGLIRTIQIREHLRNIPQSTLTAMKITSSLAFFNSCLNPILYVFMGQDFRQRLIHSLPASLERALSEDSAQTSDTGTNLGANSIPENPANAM
# Procedure: (§2) Animals were sacrificed via administration of CO2 4 hours following peritoneal injection of 10 mL of 0.5% (w/v) oyster glycogen warmed to room temperature. Leukocyte harvesting via peritoneal lavage was performed using 20 mL of Hanks' buffered salt solution (HBSS−) containing 10 mM ethylene-diaminetetra-acetic acid (EDTA) disodium salt followed by a second lavage with 10 mL of HBSS− containing 10 mM EDTA. Exactly the same technique was performed on all rats with washes of the peritoneum prior to aspiration of samples approximating 1 minute. The volume of fluid recovered from each rat was approximately 20-25 mL and bloody lavages visibly containing significant red blood cell (RBC) populations were discarded.
# (§3) Neutrophils isolated by peritoneal lavage were washed twice with 1 mL of HBSS− (without calcium chloride, magnesium chloride and magnesium sulfate) and centrifuged for ten minutes at 2000 rpms following each wash. PMNs utilized in functional assays were centrifuged at 25° C. while those used in binding assays were centrifuged at 4° C. to prevent internalization. A cold H2O RBC lysis was then performed with the addition of 9 mL of sterile ice-cold H2O and 1 mL of phosphate buffered saline (PBS) solution containing 0.1 M phosphate buffer, 0.027 M KCl and 1.37 M NaCl following resuspension of the sample in 1 mL of HBSS. Centrifugation was subsequently performed for ten minutes at 1600 rpms. White blood cell (WBC) differential stain containing saline, 2% acidic acid and phenol violet dye was used to identify the neutrophil population and trypan blue exclusion was used to determine viability of cells. As previously reported, 98% of leukocytes were neutrophils and approximately 95% of the cells were viable (Chen et al., 1996).
# Competition binding assays for N-terminal capping groups and Re-libraries were conducted with 6 nM ^3H-fMLP in addition to the unlabelled competing analogue added at 1.0 uM and 10 uM to each well. […] Total binding in the competition assays was assessed in the presence of 1.0×10^6 PMNs per sample while non-specific binding was determined in the absence of cells. Each condition was performed in quadruplicate. Total activity added to each sample was determined from cpms obtained from a sample containing 6 nM ^3H-fMLF. Data was expressed as specific binding in fmols and converted to percent of total ^3H-fMLF binding (% control).
# After a 1 hour incubation period at 4° C., the samples were harvested with the Tomtec Mach III Cell Harvester by vacuum aspiration onto 1.5 um pore size Skatron glass-fibre filter mats pre-treated with 0.1% polyethylenimine (w/v) for approximately 24 hours. Sample wells received three consecutive 12 second washes with 0.9% saline solution and 5 mL of liquid scintillation fluid was added to collected filters. Filters were counted for 2 minutes in the Beckman β-counter following exposure to scintillation fluid for 15 hours. Data was expressed in terms of specific binding in fmols converted to percent of total ^3H-fMLF binding (% control).
# (§4) The curve-fitting program Prism was used to calculate KD, IC50 and EC50 values by fitting data to the one-site binding equations A, B and C respectively. • A. Equation: One site binding (hyperbola) Y=Bmax*X/(KD+X) • B. Equation: One site competition Y=Bottom+(Top−Bottom)/(1+10^(X−LogIC50)); with x=log (concentration) and y=binding • C. […] Additionally, Graph fit software was used to perform Scatchard analysis of saturation binding data and to confirm KD and Bmax values generated by Prism software.
# elicited rat PMNs [1] = assay type: cell-based; conditions: MPO release, PMNs without fMLF, ± S.E.M.; for % Control (1 uM): test peptide 1 uM; for % Control (10 uM): test peptide 10 uM
# Procedure: as §2, §3, §1, §4
# elicited rat PMNs [2] = experiment: Myeloperoxidase release in elicited rat PMNs co-stimulated with 0.1 uM fMLF; assay type: cell-based; conditions: for antagonist function on MPO release in fMLF stimulated rat PMNs: 0.1 uM fMLF, inhibition at 10 uM, result in words; for % Control MPO release (1 uM capping group + 0.1 uM fMLF): 1 uM test peptide + 0.1 uM fMLF; for % Control MPO release (1 uM capping group + 0.1 uM fMLF) / % Control MPO Release (10 uM capping group + 0.1 uM fMLF): ± S.E.M.; for % Control MPO Release (10 uM capping group + 0.1 uM fMLF): 10 uM test peptide + 0.1 uM fMLF
# Procedure: as §2, §3
# as §1, with “In a final volume of 150 uL, 50 uL of the respective fMLP analogues (10 uM to 1 pM) and/or fMLP (10 uM to 1.0 uM) were incubated with isolated PMNs pre-treated with cytochalasin B (5 ug/mL) for 10 minutes.” left out
"IC50 (Rat FPR; elicited rat PMNs, 6 nM 3H-fMLF, 4° C. 1 hour, brackets = 95% confidence interval, read-out: Receptor Binding (IC50)) [µM]",% Control MPO release (1 uM capping group + 0.1 uM fMLF) (elicited rat PMNs [2]) [% control],% Control MPO Release (10 uM capping group + 0.1 uM fMLF) (elicited rat PMNs [2]) [% control],"competition binding of N-terminal modified NleLFK peptides (FIG. 8) (Rat FPR; 6 nM 3H-fMLF, result in words, listed as N,N-diethylcarbamoyl-NleLFK)","binding affinity, fold greater than N-t-BocMLF (Rat FPR; from rat FPR IC50 values)",Compound,inhibition of MPO release in fMLF-stimulated human neutrophils (FIG. 4) (human neutrophils),stimulation of MPO release by the compound itself in human neutrophils (human neutrophils),% Control (1 uM) (elicited rat PMNs [1]) [% control],% Control (10 uM) (elicited rat PMNs [1]) [% control],antagonist function on MPO release in fMLF stimulated rat PMNs (elicited rat PMNs [2]),"competition binding of N-terminal modified NleLFK peptides (FIG. 8) (Rat FPR; 6 nM 3H-fMLF, result in words)","inhibition of 3H-fMLF binding at 10 uM compared with iso-BocMLFK (FIG. 8) (Rat FPR; peptide 10 uM, 6 nM 3H-fMLF, result in words)","competition binding of N-terminal modified NleLFK peptides (FIG. 8) (Rat FPR; 6 nM 3H-fMLF, result in words, listed as 6)"
9.3,,,,,"CSCC[C@H](NC(=O)OC(C)(C)C)C(=O)N[C@@H](CC(C)C)C(=O)N[C@@H](Cc1ccccc1)C(=O)O [N-t-BocMLF, N-tert-butyloxycarbonylated-methionyl-leucyl-phenylalanine, reference compound]",inhibited MPO release from fMLF stimulated cells,did not induce release,,,,,,
,161.7 ± 6.2,108.9 ± 28.5,,,Capping Group 16: Fluorenylmethylcarbonyl N-terminal capping group attached to peptide NleLFK ({Acetyl(9-fluorenyl)}-[Nle]LFK),,,84.1 ± 27.6,59.9 ± 19.0,exhibited antagonist function in fMLF stimulated cells,did not significantly decrease the amount of ^3H-fMLF binding,,
,321.6 ± 8.6,185.9 ± 15.7,,,"Capping Group 18: N,N-diphenylcarbamoyl N-terminal capping group attached to peptide NleLFK ({N,N‑diphenylcarbamoyl}-[Nle]LFK)",,,142.7 ± 8.8,125.2 ± 1.5,,do not nullify binding affinity,inhibited ^3H-fMLF binding to a degree comparable with known antagonist iso-BocMLFK,
,283.3 ± 25.1,249.9 ± 6.2,inhibit ^3H-fMLF binding,,"N,N-diethylcarbamoyl-NleLFK ({N,N‑diethylcarbamoyl}-[Nle]LFK) [Capping Group 6]",,,113.8 ± 14.3,109.6 ± 3.3,inhibited MPO release,,,did not significantly decrease the amount of ^3H-fMLF binding
,,,,approximately 12 fold,ReO-CyclopropylCONH-nleu-leu-phe-trp-glu-lys(dimethylgly-t-butylgly-cys-gly)-gly-OH (Cyclopropanecarbonyl-[Nle]LFWEKG-OH; not fully specified (residue 6); printed as ReO-CyclopropylCONH-nleu-leu-phe-trp-glu-lys(dimethylgly-t-butylgly-cys-gly)-gly-OH; also: ReO chelate on Lys side chain) [ReORP553 17-01],significantly inhibited the release of MPO,did not stimulate MPO release,,,,,,
